Data from US20060135796A1, “Antiangiogenic agents” (priority 2000, published 2006).
Read-outs that look alike come from different tables or passages of the source.

Assays:
HUVEC cells = assay: HUVEC in vitro cellular proliferation inhibition (BrdU); type: cell-based, human; conditions: for antiproliferative activity in HUVEC cells, in words: inhibition of HUVEC / endothelial cell proliferation in vitro
Experimental: HUVAC In Vitro Cellular Proliferation Inhibition
HUVAC Cells and Culture Conditions
HUVAC Cells were Grown in EGM (Clonetics)
HUVEC cells were plated at 5000 cells/ml in 96-well plates. After allowing the cells to attach overnight, the cells were washed with PBS and incubated in the absence of growth factor for 24 h (EBM, 2% FCS, Clonetics). Cells were treated with increasing concentrations of drug in EBM containing 2% FCS and 10 ng.ml bFGF for 48 h at 37° C. Drug preparation, volumes added and BrdU proliferation assay were performed as indicated above.
(§1) In order to assess the biological activity of modifications at position 16, the anti-proliferative activity of these analogs was evaluated on human umbilical vein endothelial cells (HUVEC) and breast carcinoma cell line, MDA-MB-231 as models for the anti-angiogenic and anti-tumor activity, respectively.

[1] = tested on: MDA-MB-231 human breast carcinoma cells; assay: MDA-MB-231 in vitro cellular proliferation inhibition (BrdU); type: cell-based; conditions: for fold less activity than 2-methoxyestradiol: MDA-MB-231 tumor cell line, compared to 2-methoxyestradiol; for antiproliferative activity in MDA-MB-231 cells, in words: breast tumor MDA-MB-231 cells
Experimental: MDA-MB-231 In Vitro Cellular Proliferation Inhibition
MDA-MB-231 Cells and Culture Conditions
MDA-MB-231 human breast carcinoma cells were grown in DMEM containing 10% FCS (Hyclone Laboratories, Logan Utah) and supplemented with 2 mM L-Glutamine, 100 units/ml penicillin, 100 μg/ml streptomycin (Irvine Scientific, Santa Anna, Calif.).
MDA-MB-231 cells were plated at 5000 cells/ml in 96 well plates. After allowing the cells to attach overnight, the appropriate fresh media were applied containing differing concentrations of 2-ME2 or derivatives thereof, as described below. Drug was dissolved in DMSO (Sigma, St. Louis, Mo.) and added to the wells in a volume of 200 μl. Cells were incubated for two days at 37° C.; at 32 h BrdU was added. BrdU cell proliferation assay (a nucleotide analogue with a fluorescein tag that is incorporated into DNA) was performed as described by the manufacturer (Roche). Each condition was prepared in triplicate and the experiments were carried out a minimum of two times. Results are presented and means ±SE.
as §1

[2] = tested on: estrogen dependant MCF-7 cells; assay: MCF7 proliferation index (estrogenic activity); type: cell-based; conditions: measure of estrogenic activity
Description: All of these analogs have the capacity to from a hydrogen bond with the hydroxy group at position 3 and this may be the reason for their relatively low estrogenic character compared to estradiol. Both the 2-methylhydroxy and 2-formyl derivatives had good antiproliferative activity (IC50<10 microM) in HUVEC cells, whereas the 2-acetyl had poor activity in the same assay.

[3] = tested on: chick embryo chorioallantoic membrane; assay: chick embryo chorioallantoic membrane (CAM) assay; type: in vivo; design: dose or concentration left out as unconfirmed; conditions: methylcellulose disc on CAM, after 48 hours
Experimental: Anti-proliferative activity is evaluated in situ by testing the ability of an improved estradiol derivative to inhibit the proliferation of new blood vessel cells (angiogenesis). A suitable assay is the chick embryo chorioallantoic membrane (CAM) assay described by Crum et al. Science 230:1375 (1985). See also, U.S. Pat. No. 5,001,116, hereby incorporated by reference, which describes the CAM assay. Briefly, fertilized chick embryos are removed from their shell on day 3 or 4, and a methylcellulose disc containing the drug is implanted on the chorioallantoic membrane. The embryos are examined 48 hours later and, if a clear avascular zone appears around the methylcellulose disc, the diameter of that zone. is measured.

[4] = Table 2, 2-methoxyestradiol modified at position 16, 48 h, bFGF, read-out: HUVEC IC50
[5] = Table 2, 2-methoxyestradiol modified at position 16, two days, read-out: MDA-MB-231 IC50
[6] = Table 1, 2-modified estradiol derivatives, read-out: HUVEC (IC50 μM)
[7] = text statement b78, read-out: antiproliferative activity IC50 in HUVEC cells
[8] = Table 1, 2-modified estradiol derivatives, read-out: MDA-MB-231 (IC50 μM)

Molecule | IC50 (HUVEC cells; [4]) | IC50 [1, 5] | MCF7 Proliferation Index [2] | further results
16β-isobutyl-2-methoxyestradiol | 7.5 µM | 40 µM | – | fold difference between tumor cell and endothelial cell antiproliferative activity (selectivity) ([1]; MDA-MB-231 versus HUVEC): 5 fold
CCC1C[C@H]2[C@@H]3CCc4cc(O)c(OC)cc4[C@H]3CC[C@]2(C)[C@H]1O (mixture of isomers) [ethyl (—CH2CH3), Racemic 16-ethyl-2-methoxyestradiol] | 2 µM | 3 µM | – | antiproliferative activity in HUVEC cells, in words (HUVEC cells): about equipotent to 2-methoxyestradiol; fold less activity than 2-methoxyestradiol [1]: ~3 fold
C[C@]12CC[C@@H]3c4cc(CO)c(O)cc4CC[C@H]3[C@@H]1CC[C@@H]2O [2-methyl hydroxy-E2] | – | – | 7.4 | IC50 (HUVEC cells; [6]): 10 µM; IC50 (HUVEC cells; [7]): < 10 µM; IC50 [1, 8]: > 25 µM; antiproliferative activity in MDA-MB-231 cells, in words [1]: inactive
COc1cc2c(cc1O)CC[C@@H]1[C@@H]2CC[C@]2(C)[C@@H](O)[C@@H](CN(C)C)C[C@@H]12 [16β-methyl(dimethylamine)-2-methoxyestradiol] | 9 µM | 22 µM | – | –
CC(=O)c1cc2c(cc1O)CC[C@@H]1[C@@H]2CC[C@]2(C)[C@@H](O)CC[C@@H]12 [Example 2-acetyl-E2] | – | – | 4.4 | IC50 (HUVEC cells; [6]): 18 µM; antiproliferative activity in HUVEC cells, in words (HUVEC cells): poor activity; IC50 [1, 8]: 9 µM; antiproliferative activity in MDA-MB-231 cells, in words [1]: good activity
CC12CCC3c4cc(C=O)c(O)cc4CCC3C1CCC2O (stereo not drawn) [Example 2-formyl-E2] | – | – | 5.4 | IC50 (HUVEC cells; [6]): 8 µM; IC50 (HUVEC cells; [7]): < 10 µM; IC50 [1, 8]: > 25 µM; antiproliferative activity in MDA-MB-231 cells, in words [1]: inactive
COc1cc2c(cc1O)CC[C@@H]1[C@@H]2CC[C@]2(C)[C@@H](O)CC[C@@H]12 [Example 2ME2, 2-Methoxyestradiol, reference compound] | – | 0.9 µM | 4.4 | inhibition of cell mitosis and growth of new blood vessels [3]: inhibit cell mitosis and the growth of new blood vessels; IC50 [1, 8]: 0.9 µM
C[C@]12CC[C@@H]3c4ccc(O)cc4CC[C@H]3[C@@H]1CC[C@@H]2O [Example E2, estradiol, reference compound] | – | – | 13.1 | –
COc1cc2c(cc1O)CC[C@@H]1[C@@H]2CC[C@]2(C)[C@@H](O)[C@@H](CO)C[C@@H]12 [methanol (—CH2OH), 16β-methanol-2-methoxyestradiol] | 15 µM | 22 µM | – | –
COc1cc2c(cc1O)CC[C@@H]1[C@@H]2CC[C@]2(C)[C@@H](O)[C@H](C)C[C@@H]12 [methyl (—CH3), 16α-methyl-2methoxyestradiol] | < 0.5 µM | < 0.5 µM | – | antiproliferative activity in HUVEC cells, in words (HUVEC cells): greater activity than 2-methoxyestradiol; antiproliferative activity in MDA-MB-231 cells, in words [1]: better activity than 2-methoxyestradiol
COc1cc2c(cc1O)CC[C@@H]1[C@@H]2CC[C@]2(C)[C@@H](O)[C@@H](C)C[C@@H]12 [methyl, 16β-methyl-2methoxyestradiol] | 1.3 µM | 5 µM | – | fold less activity than 2-methoxyestradiol [1]: about 5 fold
CCCC[C@H]1C[C@H]2[C@@H]3CCc4cc(O)c(OC)cc4[C@H]3CC[C@]2(C)[C@H]1O [n-butyl, 16β-n-butyl-2-methoxyestradiol] | 9 µM | 39 µM | – | –
CCC[C@@H]1C[C@H]2[C@@H]3CCc4cc(O)c(OC)cc4[C@H]3CC[C@]2(C)[C@H]1O [n-propyl (—CH2CH2CH3), 16α-n-propyl-2-methoxyestradiol] | 6 µM | > 50 µM | – | antiproliferative activity in HUVEC cells, in words (HUVEC cells): good activity
CCC[C@H]1C[C@H]2[C@@H]3CCc4cc(O)c(OC)cc4[C@H]3CC[C@]2(C)[C@H]1O [n-propyl, 16β-n-propyl-2-methoxyestradiol] | 9 µM | 36 µM | – | –
